In one data set the target is T1, β5 (Homo sapiens, UniProt P28074).
T1 construct: using HEK-293 cell lysate as the enzyme source of D5; endogenous in cells; host or cells: HEK-293 (human embryonic kidney cells)
Briefly: Enzymatic inhibitory activity on β5 (HEK-293 cell lysate, Ac-WLA-AMC substrate). It counts as biochemical. Conditions: 1 hour pre-incubation. In a few lines:
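HEK-293 lysate (25 ng/μl final) preincubated 1 h at 23 °C with compound (9-point, 5-fold dilutions) in 20 mM Tris pH 8.0, 0.5 mM EDTA. Ac-WLA-AMC then added at 20 μM final for 2 h at 23 °C in the dark. AMC fluorescence read at Ex 345/Em 445 nm; IC50 from curve fit.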

Data set [1] has as its system multiple myeloma cells MM. 1S. Briefly: In-vivo assay I: subcutaneous xenograft model of multiple myeloma cells MM. 1S in mice. Conditions: MM. 1S xenograft, NOD/SCID mice; for animal death or weight loss caused by the compound: 2 mg/kg orally once daily for 14 days; for T/C / TGI (tumor growth inhibition rate): 2 mg/kg orally once daily, Day 14. How it is done: Evaluation assay of LMP7 inhibitors in a subcutaneous xenograft model of multiple myeloma cells MM. 1S in mice
Female NOD/SCID mice, week old: 5-6 weeks old, certificate No: SCXK(Jing) 2021-0006, purchased from Beijing Vital River Experimental Animal Technology Co. Ltd.
The specific method was that mice were housed in an SPF environment. Every 5 mice were housed in 1 cage. Animals were free to drink and eat and were adaptively raised for one week. Laboratory conditions: room temperature 18-24° C., relative humidity 40%-70%, ventilated with a ventilation fan, natural light source for 12 hours per day. Cages, bedding, drinking water, and feed were replaced twice a week, and the replaced cages and drinking water bottles were cleaned and then sterilized by steam under high pressure. Cages, room walls, and floors were cleaned twice a week with 84-disinfectant or bromogeramine.
MM. 1S (Cell Resource Center, Institute of Basic Medical Sciences, Chinese Academy of Medical Sciences) cells were cultured using RPMI-1640 medium supplemented with 20% fetal bovine serum and 1% Penicillin-Streptomycin at 37° C. in an atmosphere of 5% CO2 in air. Cells were routinely sub-cultured twice weekly, and cells grown in the exponential growth phase were harvested and counted. Cell suspensions were mixed well in 30% Matrigel™ (Corning Matrigel™ High Concentration Basement Membrane) for tumor cell inoculation.
Mice were pretreated with cyclophosphamide via intraperitoneal injection for 3 days, and each mouse was subcutaneously injected with 0.1 mL of PBS-suspended MM. 1S cell suspension (containing 1.0×10^7 cells, 30% Matrigel) at the axillary sites on both sides to establish a subcutaneous transplanted tumor model of multiple myeloma cells MM. 1S in mice. When the tumor size reached 400-700 mm^3, the tumor mass was collected aseptically and cryopreserved for future use. The MM. 1S tumor mass was revived, and the tumor mass was aseptically collected for 2 generations for an in-vivo efficacy evaluation assay. When the average tumor volume was about 100-150 mm^3, 20 tumor-bearing mice with a relatively regular shape and uniform size were selected for the experiment. They were divided into 4 groups, with 5 animals in each group. The first group of the model group was orally administered with the vehicle once daily; the second group was orally administered with Example 9 (2 mg/kg) once daily; the third group was orally administered with Example 67 (2 mg/kg) once daily; the fourth group was orally administered Example 73 (2 mg/kg) once daily. Administration was started on the day of grouping and continued for 14 days. Tumor diameter and body weight were measured 3 times per week during the experiment. At the end of the experiment, intraocular canthus blood was collected and mice were sacrificed immediately after blood collection to collect tumor tissue.
The study endpoints were tumor growth inhibition, maximum tumor burden (individual tumor size equal to 10% of body weight), and weight loss greater than 20% of body weight at the start of treatment. The tumor volume was calculated as V=0.5×a×b^2, where V is the tumor volume and a and b are the length and width of the tumor, respectively. The tumor growth inhibition rate was calculated as TGI (%)=(1-(tumor volume of treatment group-tumor volume of treatment group at grouping)/(tumor volume of control group-tumor volume of control group at grouping))*100%. Complete tumor regression (CR) is defined as a tumor that is reduced to below the palpation limit (mm^3). Partial tumor regression (PR) is defined as a tumor that is reduced by at least half compared to the initial tumor volume. The minimum duration of CR or PR in three or more consecutive tumor measurements is required to consider CR or PR as persistent. […]

pIC50: −log10 of the molar value.

For the compound `O=C1COB([C@H](Cc2coc3ccccc23)NC(=O)C(=O)Nc2cnccn2)O1` [Ex. 73], at β5, the negative logarithm of the IC50 (pIC50) is 7.68. Besides, in data set [1], the “animal death or weight loss caused by the compound” value (“animal death or weight loss caused” below) is listed as “no animal death or weight loss”, the T/C was determined as 0.53% and the “TGI (tumor growth inhibition rate)” value is on record as 112.56%.
`O=C(Nc1cnccn1)C(=O)N[C@@H](Cc1coc2ccccc12)B(O)O` [Ex. 9, (R)-(2-(benzofuran-3-yl)-1-(2-oxo-2-(pyrazin-2-ylamino)acetamido)ethyl) boronic acid] had a pIC50 on β5 of 7.01. For the same compound, in data set [1], the “animal death or weight loss caused” value was “no animal death or weight loss”, the T/C was found to be 0.88% and the “TGI (tumor growth inhibition rate)” value was found to be 112.28%.
Compound `Cc1cnc(NC(=O)C(=O)N[C@@H](Cc2coc3ccccc23)B(O)O)s1` [Ex. 32, (R)-(2-(benzofuran-3-yl)-1-(2-oxo-2-((5-methylthiazol-2-yl)amino)acetamido)ethyl)boronic acid] gave a pIC50 against β5 of 7.20.
On to `O=C(Nc1cc(Cl)ccn1)C(=O)N[C@@H](Cc1coc2ccccc12)B(O)O` [Ex. 49, (R)-(2-(benzofuran-3-yl)-1-(2-oxo-2-((4-chloropyridin-2-yl)amino)acetamido)ethyl)boronic acid], for which, on β5, the negative-log IC50 (pIC50) is 7.21.
Same read-out and setting: next, `O=C(Nc1nc2ccccc2s1)C(=O)N[C@@H](Cc1coc2ccccc12)B(O)O` [Ex. 27, (R)-(2-(benzofuran-3-yl)-1-(2-oxo-2-((benzo[d]thiazol-2-yl)amino)acetamido)ethyl)boronic acid]: 7.35.
As to `O=C(Nc1ccccn1)C(=O)N[C@@H](Cc1coc2ccccc12)B(O)O` [Ex. 12], the negative-log IC50 (pIC50) at β5 was 6.55.
`CC1CC(C)(C)OB([C@H](Cc2coc3ccccc23)NC(=O)C(=O)Nc2cnccn2)O1` (stereo partly shown) [Ex. 67]: at β5, the pIC50 is 7.42. Moreover, in data set [1], the “animal death or weight loss caused” value is recorded as “no animal death or weight loss”, the T/C is on record as 1.57% and the “TGI (tumor growth inhibition rate)” value was found to be 112.06%.

Values taken from patent publication US20240425529A1, “BORIC ACID DERIVATIVE” (SHOUYAO HOLDINGS (BEIJING) CO., LTD., priority 2021, published 2024).
